Laboratory results reported in US20160367553A1, “Methods and Compositions for Treating Cancers having Acquired Resitance to prior Chemotherapeutic and Targeted Drugs Using Carboxyamidotriazole Orotate” (priority 2015, published 2016).

Columns and labels:
[1] = system: VEGF; details: cited from earlier work
[2] = system: imatinib mesylate-resistant chronic myeloid leukemia cells; details: cited from earlier work
[3] = system: refractory head and neck tumor; assay: Phase I clinical study of CTO, patient with refractory head and neck tumor; assay type: in vivo, human; details: tumor PBKCA, E545K, 285 mg/m2/day
Procedure: The effectiveness of the CTO treatment is determined by controlled clinical studies. The cancers are evaluated by measuring tumors no more than 14 days before the start of the treatment, and evaluated after 2 cycles of 28 days after day 1 of the administration of the first dose of CTO. The tumor size is measured by the most accurate measurement such as PET-CT, CI scan, MRI scan, x-ray, ultrasound, etc. The criteria for evaluating response are described in the revised Response Evaluation Criteria in Solid Tumors Guidelines, Eisenhauer et al, 1990 and by the Macdonald Criteria for response to high grade gliomas, Macdonald. et al, 1990.
“Progressive disease” is defined as an increase of 25% or greater in the product of the largest perpendicular diameters for at least one bidimensionally measurable tumor, or an increase of 25% or greater at least one undimensionally measurable tumor or appearance of a new lesion or clinical deterioration. […]
“Partial response” means a) for bidimensionally measurable tumors, a decrease of at least 50% in the sum of the products of tire largest perpendicular diameters of all measurable tumors as determined by two observations not less than four weeks apart, b) for undimensionally measurable tumors, a decrease by at least 50% in the sum of the largest diameters of all tumors as determined by two observation not less than four weeks apart. […]

[4] = system: refractory NSCLC; assay: Phase I clinical study of CTO, patients with refractory NSCLC; assay type: in vivo, human; details: NSCLC patient; for tumor response measured after two cycles: docetaxel, erlotinib, 28 days
[5] = system: metastatic colorectal cancer; assay: Phase I clinical study of CTO, patient with refractory metastatic colorectal cancer; assay type: in vivo, human; details: 285 mg/m2/day
[6] = system: renal cell carcinoma; assay: Phase I clinical study of CTO, patient with refractory renal cell carcinoma; assay type: in vivo, human; details: 75 mg/m2/day
[7] = system: Akt and Erk1/2 phosphorylation; details: exosomes-stimulated HUVEC cell; cited from earlier work

Row | Structure (SMILES) | effect on VEGF expression and secretion [1] | apoptosis by down-regulating bcr-abl [2] | stable disease and partial response registered for [3] | tumor response measured after two cycles ([3]; prior cetuximab, cisplatin, taxotere, 28 days, two cycles) | stable disease and partial response registered for ([4]; tumor EGFR, ELREATS 746-752 V (exon 19), 219 mg/m2/day) | tumor response measured after two cycles ([4]; tumor EGFR, ELREATS 746-752 V (exon 19), prior carboplatin, paclitaxel, cisplatin, gemcitamide, premetrexed, 219 mg/m2/day) | stable disease and partial response registered for ([4]; tumor PI3KCA, E545K, 219mg/m2/day) | tumor response measured after two cycles ([4]; tumor PI3KCA, E545K, prior paclitaxel, carboplatin, 219mg/m2/day) | tumor response measured after two cycles ([5]; tumor BRAF V660E, prior leucovorin, fluorouracil, oxaliplatin, bevacizumab, cetuximab, capecitabine, panitumumab, irinotecan, 28 days, two cycles) | stable disease and partial response registered for ([5]; tumor) | stable disease and partial response registered for ([6]; CTO continued) | tumor response measured after two cycles ([6]; prior IL-2, pegylated IFN, sorafenib, sunitnib, erlotinib, torisel, 28 days, two cycles) | effect on Akt and Erk1/2 phosphorylation [7]
1 | NC(=O)c1nnn(Cc2cc(Cl)c(C(=O)c3ccc(Cl)cc3)c(Cl)c2)c1N [CAI, Carboxyamidotriazole] | inhibits VEGF expression, and secretion | induces apoptosis |  |  |  |  |  |  |  |  |  |  | 
2 | NC(=O)c1nnn(Cc2cc(Cl)c(C(=O)c3ccc(Cl)cc3)c(Cl)c2)c1N.O=C(O)c1cc(=O)[nH]c(=O)[nH]1 [CTO, carboxyamidotriazole orotate] |  |  | more than six | responded by not progressing | more than twelve | responded by not progressing | more than twelve | responded by not progressing | responded to CTO by not progressing | six | over twelve | responded by not progressing | inhibits Akt and Erk1/2 phosphorylation
